# BindingDB's records for doi:10.1021/jm050859x (Amgen, 2006)
# Target: RNA-directed RNA polymerase (Hepacivirus hominis, UniProt Q8JXU8)
# Assay: Inhibitory activity against HCV delta 21 NS5b RNA polymerase
# Sequence of RNA-directed RNA polymerase (Q8JXU8 whole entry): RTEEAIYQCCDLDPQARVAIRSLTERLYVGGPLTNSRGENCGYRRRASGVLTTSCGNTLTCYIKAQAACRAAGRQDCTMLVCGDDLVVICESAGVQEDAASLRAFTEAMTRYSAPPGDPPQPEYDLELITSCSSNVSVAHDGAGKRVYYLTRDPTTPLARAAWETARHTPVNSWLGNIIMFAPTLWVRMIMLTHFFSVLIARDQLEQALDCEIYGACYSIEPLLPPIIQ
row,Compound,IC50
1,O=C(NN1C(=O)C(=Cc2ccc(Cl)cc2)SC1=S)c1ccccc1 [5-(4-chlorobenzylidene)-3-(benzoylamino)-4-oxo-2-thionothiazolidine],> 30 µM
2,"O=S(=O)(Nn1c(O)c(Cc2ccc(Cl)c(Cl)c2)sc1=S)c1ccccc1 [5-(3,4-dichlorobenzyl)-3-(benzenesulfonylamino)-4-oxo-2-thionothiazolidine]",11 µM
3,O=C1N=C(S)SC1=Cc1ccc(Cl)cc1 [5-(4-chlorobenzylidene)-2-thioxothiazolidin-4-one],> 30 µM
4,O=C1C(=Cc2ccc(-c3cc(C(F)(F)F)ccc3Cl)o2)SC(=S)N1NS(=O)(=O)c1ccccc1 [5-(5-[2-chloro-5-(trifluoromethyl)phenyl]-furan-2-methylene)-3-(benzenesulfonylamino)-4-oxo-2-thionothiazolidine],0.1 µM
5,"C=C(c1ccc(Cl)c(Cl)c1)c1sc(=S)n(NS(=O)(=O)c2ccccc2)c1O [5-(3,4-dichlorophenyl-1-ethylene)-3-(benzenesulfonylamino)-4-oxo-2-thionothiazolidine]",0.6 µM
